# Results reported in ChEMBL document CHEMBL1125940 (Bioorg Med Chem Lett, 1991).
# Positions of bridges follow the written chain, without caps; N, C: chain ends. Residues, ends and D or L forms follow the SMILES beside them.
# Organism: Oryctolagus cuniculus
# Experiment: Percent of endothelin-1 induced contraction of carotid arteries isolated from New Zealand white rabbits, tested at 1 uM concentration of compound
# Format: functional
row,Structure (SMILES),Contraction
1,"CC[C@H](C)[C@H](NC(=O)[C@H](C)NC(=O)[C@H](CC(C)C)NC(=O)[C@H](Cc1c[nH]cn1)NC(=O)[C@@H]1CSSC[C@H](N)C(=O)N[C@@H](CO)C(=O)N[C@H]2CSSC[C@H](NC(=O)[C@H](CCC(=O)O)NC(=O)[C@H](CCCCN)NC(=O)[C@H](CC(=O)O)NC(=O)[C@H](CCSC)NC(=O)[C@H](CC(C)C)NC(=O)[C@H](CO)NC(=O)[C@H](CO)NC2=O)C(=O)N[C@@H](C(C)C)C(=O)N[C@@H](Cc2ccc(O)cc2)C(=O)N[C@@H](Cc2ccccc2)C(=O)N1)C(=O)N[C@H](C(=O)N[C@@H](Cc1c[nH]c2ccccc12)C(=O)O)[C@@H](C)CC (H-CSCSSLMDKECVYFCHLAIIW-OH; disulfide 1-15, 3-11)",0%
2,"CC[C@H](C)[C@H](NC(=O)[C@H](CC(=O)O)NC(=O)[C@H](CC(C)C)NC(=O)[C@H](Cc1c[nH]cn1)NC(=O)[C@@H]1CSSC[C@H](N)C(=O)N[C@@H](CO)C(=O)N[C@H]2CSSC[C@H](NC(=O)[C@H](CCC(=O)O)NC(=O)[C@H](CCCCN)NC(=O)[C@H](CC(=O)O)NC(=O)[C@H](CCSC)NC(=O)[C@H](CC(C)C)NC(=O)[C@H](CO)NC(=O)[C@H](CO)NC2=O)C(=O)N[C@@H](C(C)C)C(=O)N[C@@H](Cc2ccc(O)cc2)C(=O)N[C@@H](Cc2ccccc2)C(=O)N1)C(=O)N[C@H](C(=O)N[C@@H](C)C(=O)O)[C@@H](C)CC (H-CSCSSLMDKECVYFCHLDIIA-OH; disulfide 1-15, 3-11)",0%
3,CC[C@H](C)[C@H](NC(=O)[C@H](CC(=O)O)NC(=O)[C@H](CC(C)C)NC(=O)[C@H](Cc1c[nH]cn1)NC(=O)[C@@H]1CSSC[C@H](NC(C)=O)C(=O)N[C@@H](CO)C(=O)N[C@H]2CSSC[C@H](NC(=O)[C@H](CCC(=O)O)NC(=O)[C@H](CCCCN)NC(=O)[C@H](CC(=O)O)NC(=O)[C@H](CCSC)NC(=O)[C@H](CC(C)C)NC(=O)[C@H](CO)NC(=O)[C@H](CO)NC2=O)C(=O)N[C@@H](C(C)C)C(=O)N[C@@H](Cc2ccc(O)cc2)C(=O)N[C@@H](Cc2ccccc2)C(=O)N1)C(=O)N[C@H](C(=O)N[C@@H](Cc1c[nH]c2ccccc12)C(=O)O)[C@@H](C)CC,36%
4,"CC[C@H](C)[C@H](NC(=O)[C@H](CC(=O)O)NC(=O)[C@H](C)NC(=O)[C@H](Cc1c[nH]cn1)NC(=O)[C@@H]1CSSC[C@H](N)C(=O)N[C@@H](CO)C(=O)N[C@H]2CSSC[C@H](NC(=O)[C@H](CCC(=O)O)NC(=O)[C@H](CCCCN)NC(=O)[C@H](CC(=O)O)NC(=O)[C@H](CCSC)NC(=O)[C@H](CC(C)C)NC(=O)[C@H](CO)NC(=O)[C@H](CO)NC2=O)C(=O)N[C@@H](C(C)C)C(=O)N[C@@H](Cc2ccc(O)cc2)C(=O)N[C@@H](Cc2ccccc2)C(=O)N1)C(=O)N[C@H](C(=O)N[C@@H](Cc1c[nH]c2ccccc12)C(=O)O)[C@@H](C)CC (H-CSCSSLMDKECVYFCHADIIW-OH; disulfide 1-15, 3-11)",0%
5,"CSCC[C@@H]1NC(=O)[C@H](CC(C)C)NC(=O)[C@H](CO)NC(=O)[C@H](CO)NC(=O)[C@@H]2CSSC[C@H](NC(=O)[C@H](CCC(=O)O)NC(=O)[C@H](CCCCN)NC(=O)[C@H](CC(=O)O)NC1=O)C(=O)N[C@@H](C(C)C)C(=O)N[C@@H](Cc1ccc(O)cc1)C(=O)N[C@@H](Cc1ccccc1)C(=O)N[C@H](C(=O)N[C@@H](Cc1c[nH]cn1)C(=O)N[C@@H](CC(C)C)C(=O)N[C@@H](CC(=O)O)C(=O)N[C@@H](C)C(=O)N[C@@H](C)C(=O)N[C@@H](Cc1c[nH]c3ccccc13)C(=O)O)CSSC[C@H](N)C(=O)N[C@@H](CO)C(=O)N2 (H-CSCSSLMDKECVYFCHLDAAW-OH; disulfide 1-15, 3-11)",50%
